Experimental data from patent US20170368104A1, “INDUCTION OF TOLERANCE IN LUNG ALLOGRAFT TRANSPLANTATION” (Washington University, priority 2013, published 2017).

System: B6 CD45.1^+ CD4^+ T cells
Experiment: In vitro mixed lymphocyte reaction, CD4+ responders
Format: cell-based, mouse
Details: agent added to MLR containing accepting allograft-derived CD8+ T cells
Experimental: In vitro mixed lymphocyte reactions were performed in round bottom 96-well plates using 3×10^5 T cell-depleted Balb/c splenocyte stimulators with 10^5 CFSE-labeled B6 CD45.1^+ CD4^+ or CD8^+ T cell responders and, as indicated, 10^5 CD8^+ T cells isolated from lungs or spleens of immunosuppressed B6 recipients of Balb/c allografts. For some experiments central and effector memory T cells were sorted from lungs of resting mice. T cell responses were evaluated flow cytometrically on day 5. All compounds inhibiting the metabolism of essential amino acids were obtained from Sigma-Aldrich (St. Louis, Mo.) and added to the co-cultures as previously described for the duration of the experiment (41).

Row | SMILES | CD8+ T cell-mediated suppression of CD4+ T lymphocyte proliferation
1 | CCC[C@H](N)C(=O)O [L-novaline] | did not affect proliferation
2 | NC(=NCCC[C@H](N)C(=O)O)N[N+](=O)[O-] [L-NNA, NG-nitro-L-Arginine; L-NG-Nitroarginine] | able to attenuate
3 | CC(=N)NCCCC[C@H](N)C(=O)O.Cl.Cl [L-nil, N6-(1-iminoethyl)-L-lysine, dihydrochloride] | able to attenuate
4 | Cn1cc(C[C@H](N)C(=O)O)c2ccccc21 [1-methyl-tryptophan] | did not affect proliferation
5 | N=C(N)NCCC[C@H](N)C(=O)O [L-arginine] | did not reverse
